For this assay, the target named is T1, human CXCR3 (N-delta 4) (Homo sapiens, UniProt P49682).
T1 construct: CD8 leader (N); Flag; expressed in transfected cells; membranes prepared
T1 sequence (P49682 5-368 limits assumed): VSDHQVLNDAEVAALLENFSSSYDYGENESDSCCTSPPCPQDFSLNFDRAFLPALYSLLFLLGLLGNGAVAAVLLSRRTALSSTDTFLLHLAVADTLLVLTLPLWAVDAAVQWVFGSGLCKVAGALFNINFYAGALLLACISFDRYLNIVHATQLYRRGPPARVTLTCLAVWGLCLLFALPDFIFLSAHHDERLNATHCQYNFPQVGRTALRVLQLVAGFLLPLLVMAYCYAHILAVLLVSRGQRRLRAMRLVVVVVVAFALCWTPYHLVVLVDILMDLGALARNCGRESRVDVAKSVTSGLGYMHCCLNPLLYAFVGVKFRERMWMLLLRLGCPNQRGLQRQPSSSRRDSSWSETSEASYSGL
The assay can be described thus: Human CXCR3 (N-delta 4) Scintillation Proximity Assay (SPA), [125I] IP-10 binding to Ba/F3-hCXCR3 membranes. As to conditions: IC50 rating, Table 1; read-out: IC50. The text has this: The inventive compounds can readily be evaluated to determine activity at the CXCR3 receptors by known methods, such as, for example, development of a human CXCR3 (N-delta 4) Binding Assay.
Cloning and Expression of Human CXCR3 (N-delta 4):
The DNA encoding human CXCR3 was cloned by PCR using human genomic DNA (Promega, Madison, Wis.) as a template. The PCR primers were designed based on the published sequence of human orphan receptor GPR9 (1) with incorporated restriction sites, a Kozak consensus sequence, CD8 leader and Flag tag. The PCR product was subcloned into the mammalian expression vector pME18Sneo, a derivative of the SR-alpha expression vector (designated as pME18Sneo-hCXCR3 (N-delta 4).
IL-3-dependent mouse pro-B cells Ba/F3 were transfected by electroporation in 0.4 ml Dulbecco's PBS containing 4×10^6 cells with 20 μg of pME18Sneo-hCXCR3 (N-delta 4) plasmid DNA. Cells were pulsed at 400 Volts, 100 OHMs, 960 μFd. The transfected cells were under selection with 1 mg/ml G418 (Life Technologies, Gaithersburg, Md.). G418-resistant Ba/F3 clones were screened for CXCR3 expression by specific binding of [^125I] IP-10 (NEN Life Science Products, Boston, Mass.).
Preparation of Ba/F3-hCXCR3 (N-delta 4) Membranes:
Ba/F3 cells expressing human CXCR3 (N-delta 4) were pelleted and resuspended in the lysis buffer containing 10 mM HEPES, pH 7.5 and Complete® protease inhibitors (1 tablet per 100 ml) (Boehringer Mannheim, Indianapolis, Ind.) at a cell density of 20×10^6 cells per ml. After 5 minute incubation on ice, cells were transferred to 4639 cell disruption bomb (Parr Instrument, Moline, Ill.) and applied with 1,500 psi of nitrogen for 30 minutes on ice. Large cellular debris was removed by centrifugation at 1,000×g. Cell membrane in the supernatant was sedimented at 100,000×g. The membrane was resuspended in the lysis buffer supplemented with 10% sucrose and stored at −80° C. Total protein concentration of the membrane was determined by BCA method from Pierce (Rockford, Ill.).
Human CXCR3 (N-delta 4) Scintillation Proximity Assay (SPA):
For each assay point, 2 μg of membrane was preincubated for 1 hr with 300 μg wheat germ agglutinin (WGA) coated SPA beads (Amersham, Arlington Heights, Ill.) in the binding buffer (50 mM HEPES, 1 mM CaCl2, 5 mM MgCl2, 125 mM NaCl, 0.002% NaN3, 1.0% BSA) at room temperature. The beads were spun down, washed once, resuspended in the binding buffer and transferred to a 96-well Isoplate (Wallac, Gaithersburg, Md.). 25 pM of [^125I] IP-10 with tested compounds in a series of titration were added to start the reaction. After 3 hr reaction at room temperature, the amount of [^125I] IP-10 bound to the SPA beads was determined with a Wallac 1450 Microbeta counter.
The Ki ratings for the various compounds of the present invention are given in the afore-mentioned Table 1. From these ratings and value ranges, it would be apparent to the skilled artisan that the compounds of the invention have excellent utility as CXCR3 receptor antagonists.
On the technique in general: In a scintillation proximity assay essentially only radioactivity close to the scintillant gives light.

Molecules are shown by their SMILES. Some results are limits rather than exact numbers.

Data on 44 compounds can be found in patent US7868005B2, “Pyrazinyl substituted piperazine-piperidines with CXCR3 antagonist activity” (Schering Corporation, priority 2005, dated 2011).

Usually IC50 stands for the concentration at which inhibition is half-maximal.

Take `CC[C@H]1CN(c2nc(N)c(C(N)=O)nc2Cl)CCN1C1CCN(Cc2ccc(Cl)cc2[C@H](O)C(=O)NC)CC1` [compound 12]: the concentration for half-maximal inhibition (IC50) is less than 25 nM. Take `CC[C@H]1CN(c2nc(N)c(C(N)=O)nc2Cl)CCN1C1CCN(Cc2ccc(Cl)cc2CCn2ccnc2)CC1` [compound 52]: the IC50 is greater than 100 nM. Consider `CC[C@H]1CN(c2nc(N)c(C(N)=O)nc2Cl)CCN1C1CCN(Cc2ccc(Cl)cc2CC(=O)N(C)C)CC1` [compound 42], for which the IC50 was greater than 100 nM. For `CC[C@H]1CN(c2nc(N)c(C(=O)NCCO)nc2Cl)CCN1C1CCN(Cc2ccc(C#N)cc2OCC(=O)NCCO)CC1` [compound 146], the IC50 is less than 25 nM. The result for `CC[C@H]1CN(c2nc(N)c(C(N)=O)nc2Cl)CCN1C1CCN(Cc2ccc(Cl)cc2CCNC(N)=O)CC1` [compound 34] reads 25 to 100 nM; that for `CC[C@H]1CN(c2nc(N)c(C(N)=O)nc2Cl)CCN1C1CCN(Cc2ccc(Cl)cc2[C@@H](O)C(=O)NC)CC1` [compound 44], greater than 100 nM; that for `CC[C@H]1CN(c2nc(N)c(C(=O)NCCNS(C)(=O)=O)nc2Cl)CCN1C1CCN(Cc2ccc(Cl)cc2C(=N)NC)CC1` [compound 254], 25 to 100 nM. The result for `CC[C@H]1CN(c2nc(N)c(C(=O)NCCO)nc2Cl)CCN1C1CCN(Cc2ccc(Cl)cc2N2CC[C@@H](O)C2)CC1` [compound 141] reads less than 25 nM; that for `CC[C@H]1CN(c2nc(N)c(C(=O)NCCO)nc2Cl)CCN1C1CCN([C@@H](C(=O)OC)c2ccc(Cl)cc2)CC1` [compound 150], less than 25 nM.

Turning to `CCNC(=O)c1cnc(N2CCN(C3CCN(C(=O)c4ccc(Cl)cc4)CC3)[C@@H](CC)C2)c(C)n1` [compound 451], the IC50 is less than 25 nM. Then `CC[C@H]1CN(c2nc(N)c(C(=O)NC3CC3)nc2Cl)CCN1C1CCN(Cc2ccc(Cl)cc2C(=O)OC)CC1` [compound 90], with less than 25 nM; and `CC[C@H]1CN(c2nc(N)c(C(N)=O)nc2Cl)CCN1C1CCN([C@H](CO)c2ccc(Cl)cc2)CC1` [compound 49], with greater than 100 nM. Regarding `CC[C@H]1CN(c2ncc(C(=O)NC3CC3)nc2C)CCN1C1CCN(C(=O)c2ccc(F)c(F)c2)CC1` [compound 461], the IC50 was less than 25 nM. Consider `CC[C@H]1CN(c2nc(N)c(C(=O)NCCO)nc2Cl)CCN1C1CCN(C(=O)c2ccc(Cl)cc2CC#N)CC1` [compound 317], for which the IC50 was less than 25 nM. On to `CC[C@H]1CN(c2nc(N)c(C(=O)NCCO)nc2Cl)CCN1C1CCN([C@H](C(=O)O)c2ccc(Cl)cc2)CC1` [compound 203], for which the IC50 was greater than 100 nM. Regarding `CCOC(=O)C1CCC(Oc2ccc(CN3CCC(N4CCN(c5nc(N)c(C(N)=O)nc5Cl)C[C@@H]4CC)CC3)cc2)CC1` (some centres unmarked) [compound 53], the IC50 is greater than 100 nM. Take `CC[C@H]1CN(c2nc(N)c(C(=O)NC)nc2Cl)CCN1C1CCN(C(=O)c2ccc(Cl)c(NS(C)(=O)=O)c2)CC1` [compound 364]: the 50% inhibitory concentration (IC50) was greater than 100 nM. For the compound `CC[C@H]1CN(c2nc(N)c(C(=O)NCCO)nc2Cl)CCN1C1CCN(C(=O)c2ccc(F)c(F)c2)CC1` [compound 318], the IC50 was in the range of 25 to 100 nM. Consider `CC[C@H]1CN(c2nc(N)c(C(=O)NCCO)nc2Cl)CCN1C1CCN(Cc2ccc(F)cc2F)CC1` [compound 158], for which the IC50 was less than 25 nM. As to `CC[C@H]1CN(c2nc(N)c(C(=O)NC)nc2Cl)CCN1C1CCN(CCCNC(=O)c2ccc(Cl)cc2)CC1` [compound 79], the IC50 is greater than 100 nM.

Regarding `CC[C@H]1CN(c2nc(N)c(C(=O)NCCO)nc2Cl)CCN1C1CCN(Cc2ccc(OC)cc2)CC1` [compound 126], the half-inhibitory concentration (IC50) is less than 25 nM. The result for `CC[C@H]1CN(c2nc(N)c(C(N)=O)nc2Cl)CCN1C1CCN(Cc2ccc(Cl)cc2C2NC(=O)N(C)C2=O)CC1` (some centres unmarked) [compound 380] reads greater than 100 nM; that for `CC[C@H]1CN(c2nc(N)c(C(=O)NCCO)nc2Cl)CCN1C1CCN(Cc2ccc(Cl)cc2C(=O)NC)CC1` [compound 160], less than 25 nM.

Turning to `CC[C@H]1CN(c2nc(N)c(C(N)=O)nc2Cl)CCN1C1CCN(Cc2ccc(Cl)cc2NC(=O)C(C)O)CC1` (some centres unmarked) [compound 27], the IC50 lay within 25 to 100 nM. Consider `CC[C@H]1CN(c2nc(N)c(C(=O)NCCOc3ccccc3)nc2Cl)CCN1C1CCN(Cc2ccc(C#N)cc2)CC1` [compound 99], for which the IC50 is less than 25 nM. Consider `CC[C@H]1CN(c2nc(N)c(C(=O)NCCNS(=O)(=O)C(F)(F)F)nc2Cl)CCN1C1CCN(Cc2ccc(Cl)cc2N2CC[C@@H](O)C2)CC1` [compound 241], for which the IC50 is less than 25 nM.

Turning to `CC[C@H]1CN(c2ncc(C(N)=O)nc2C)CCN1C1CCN(Cc2ccc(Cl)cc2)CC1` [compound 412], the 50% inhibitory concentration (IC50) was less than 25 nM.

Turning to `CC[C@H]1CN(c2nc(N)c(C(=O)NC3CC3)nc2Cl)CCN1C1CCN(Cc2ccc(Cl)cc2CN)CC1` [compound 87], the IC50 was less than 25 nM. As for `CC[C@H]1CN(c2nc(N)c(C(=O)NCCO)nc2Cl)CCN1C1CCN(Cc2ccc(Cl)cc2C(=O)O)CC1` [compound 164], the IC50 is less than 25 nM. Then `CC[C@H]1CN(c2nc(N)c(C(=O)NCCO)nc2Cl)CCN1C1CCN(Cc2ccc(C#N)cc2OCCN2CCCC2=O)CC1` [compound 193], with greater than 100 nM. In the case of `CC[C@H]1CN(c2nc(N)c(C(=O)NCCNS(=O)(=O)c3cn(C)cn3)nc2Cl)CCN1C1CCN(Cc2ccc(C#N)cc2)CC1` [compound 237], the IC50 was greater than 100 nM.

For `CC[C@H]1CN(c2nc(N)c(C(=O)NCCO)nc2Cl)CCN1C1CCN(Cc2ccc(Cl)cc2C(C)(C)O)CC1` [compound 145], the IC50 is less than 25 nM. Turning to `CC[C@H]1CN(c2nc(N)c(C(=O)NCCO)nc2Cl)CCN1C1CCN(C(=O)c2ccc(OC(F)(F)F)cc2O)CC1` [compound 361], the 50% inhibitory concentration (IC50) was greater than 100 nM. Then `CC[C@H]1CN(c2nc(N)c(C(=O)NC3CC3)nc2Cl)CCN1C1CCN(Cc2ccc(Cl)cc2S(C)(=O)=O)CC1` [compound 420], with less than 25 nM. Turning to `CC[C@H]1CN(c2nc(N)c(C(=O)NCCNS(N)(=O)=O)nc2Cl)CCN1C1CCN(Cc2ccc(F)c(F)c2)CC1` [compound 265], the IC50 is less than 25 nM. Consider `CC[C@H]1CN(c2nc(N)c(C(=O)NC)nc2Cl)CCN1C1CCN(C(=N)c2ccc(Cl)cc2)CC1` [compound 371], for which the IC50 is less than 25 nM.

With `CC[C@H]1CN(c2cnc(C(N)=O)cn2)CCN1C1CCN([C@@H](CO)c2ccc(Cl)cc2)CC1` [compound 438], the IC50 was less than 25 nM. On to `CC[C@H]1CN(c2nc(N)c(C(=O)NC)nc2Cl)CCN1C1CCN([C@@H](C(N)=O)c2ccc(Cl)cc2)CC1` [compound 76], for which the concentration for half-maximal inhibition (IC50) is greater than 100 nM. Then `CC[C@H]1CN(c2nc(N)c(C(=O)NCCO)nc2Cl)CCN1C1CCN(Cc2c(F)cc(F)c(F)c2O)CC1` [compound 201], with greater than 100 nM; and `CC[C@H]1CN(c2ncc(C(N)=O)nc2C)CCN1C1CCN(Cc2ccc(F)cc2)CC1` [compound 431], with less than 25 nM.

As for `CC[C@H]1CN(c2ncc(C(N)=O)nc2Cl)CCN1C1CCN(Cc2ccc(Cl)cc2[C@@H](O)C(N)=O)CC1` [compound 286], the IC50 was less than 25 nM. As for `CC[C@H]1CN(c2nc(N)c(C(=O)NCCO)nc2Cl)CCN1C1CCN(Cc2ccc(C#N)cc2OCC(=O)NCCO)CC1` [compound 191], the IC50 lay within 25 to 100 nM. With `CC[C@H]1CN(c2nc(N)c(C(=O)NCCO)nc2Cl)CCN1C1CCN(C(=O)c2cc(F)c(F)cc2N)CC1` [compound 345], the IC50 is 25 to 100 nM. In the case of `CC[C@H]1CN(c2nc(N)c(C(N)=O)nc2Cl)CCN1C1CCN(Cc2ccc(Cl)cc2CCNC=O)CC1` [compound 32], the 50% inhibitory concentration (IC50) fell in the range of 25 to 100 nM.
